# Values joined by “and” are separate entries in the source; they are usually repeats but may differ in a detail not shown here. Equal values may be shown once. Read-outs that look alike come from different tables or passages of the source.
# What was measured:
# [1] = test system: Dermatophagoides farinae
# Procedure: (§1) American house dust mite (Dermatophagoides farinae) and European house dust mite (Dermatophagoide pteronyssinus) were maintained at 75±5% RH (relative humidity) at 25±1° C., and were provided a feed mixture of fish meal and multi-vitamins in a ratio of 1 to 1 on a 12.5×10.5×5 cm container.
# (§2) The starting concentration is important for the primary screening of bioactive compounds from plant extracts and oils. […] 1 mg of the methanol extracts or oils were suspended with 40 μl of methanol and were transferred to a colorless microtube (2 ml). The microtube was vertically shaken several times to disperse the contents to the wall and cap of the microtube and it was placed in a freeze dryer for 1 hour in order to volatilize the solvent. Twenty-five mites were placed on the prepared microtube, and all treatment groups were transferred to an incubator kept at […]. Active mites only were selected with a fine brush under a microscope. Mortalities were determined with a microscope at 24 hours and 48 hours after treatment. […] All tests were replicated four or more times. The percentage mortality was determined and transformed to arcsine square-root values for analysis of variance (ANOVA). Treatment means were compared and separated by Scheffe's test at the P=0.05 (SAS Institute, 1996). Means (±standard error) of untransformed data are reported. Controls received 40 μl of methanol.
# [2] = test system: Dermatophagoides pteronyssinus
# Procedure: as §1, §2
# [3] = test system: Lasioderma serricorne; experiment: Insecticidal activity test, treated filter paper in petri dish; format: in vivo; conditions: adults, 24 hours
# Procedure: (§3) Stored-product pests used in the present invention were adult Lasioderma serricome Fab., adult Sitophilus oryzae L. and adult Callosobruchus chinensis L., and it was selected insects were not exposed to any insecticide. L. serricorne was bred in a beaker(10 cm diameter, 15 cm height) with wheat bran, S. oryzae was bred in a platic container(20×20×15 cm) with peanuts, and was bred in a plastic container(26×30×20 cm) with red beans. All insects were maintained at 28±1° C., 55±5% RH(relative humidity) and 16:8 hr(day:night) light condition.
# (§4) Right after treatment, paper was transferred to hood and put in hood for about 2 minutes to completely evaporate solvent, and then, the above paper was put on paper treated with 20 adult pests in petri dish and this dish was covered with a lid. 24 hours after insecticide activity was investigated. To faacilitate handling of adult pests by their reducing activity, L. sericorne was put at −4° C. for 2 minutes, S. oryzae was used without this treatment, and C. chinensis was selected by using sucking tube. Healthy pests used in test were selected right before 6 hours of test. They were maintained at 28±1° C., 50-60% RH and 16:8 hr(day:night) light condition.
# (§5) Insecticidal activity of salicylaldehyde against stored-product pests was investigated by the insecticidal test of Test 6. Test was repeated 25 times for adult S. oryzae, and 10 times for adult L. serricorne and adult C. chinensis. 10 adult pests were used for each test.
# [4] = test system: Sitophilus oryzae; experiment: as above; format: in vivo, Sitophilus oryzae L.; conditions: adults, 24 hours
# Procedure: as §3, §4, §5
# [5] = test system: Callosobruchus chinensis; experiment: as above; format: in vivo, Callosobruchus chinensis L.; conditions: adults, 24 hours
# Procedure: as §3, §4, §5
# [6] = test system: stored-product pests; experiment: Insecticidal activity test, statements not resolved by pest species; format: in vivo; conditions: concentration of 1.25 mg
# Procedure: as §3, §4
compound,measurement,setting,value
O=Cc1ccccc1O [salicylaldehyde],"Mortality (Means ± standard error, %)","[1]; 0.125 mg/tube, 24 hr",20.0 ± 1.6c %
same,"Mortality (Means ± standard error, %)","[1]; 0.125 mg/tube, 48 hr",27.0 ± 3.8c %
same,"Mortality (Means ± standard error, %)","[1]; 0.2 mg/tube, 24 hr",22.0 ± 1.2c %
same,"Mortality (Means ± standard error, %)","[1]; 0.2 mg/tube, 48 hr",28.0 ± 1.6c %
same,"Mortality (Means ± standard error, %)","[1]; 0.25 mg/tube, 24 hr",26.0 ± 2.0c %
same,"Mortality (Means ± standard error, %)","[1]; 0.25 mg/tube, 48 hr",34.02.6bc %
same,"Mortality (Means ± standard error, %)","[1]; 0.3 mg/tube, 24 hr",27.0 ± 1.9c %
same,"Mortality (Means ± standard error, %)","[1]; 0.3 mg/tube, 48 hr",37.0 ± 1.9bc %
same,"Mortality (Means ± standard error, %)","[1]; 0.4 mg/tube, 24 hr",44.0 ± 2.8b %
same,"Mortality (Means ± standard error, %)","[1]; 0.4 mg/tube, 48 hr",48.0 ± 2.8b %
same,"Mortality (Means ± standard error, %)","[1]; 0.5 mg/tube, 24 hr",99.0%
same,"Mortality (Means ± standard error, %)","[1]; 0.5 mg/tube, 48 hr",100a %
same,"Mortality (Means ± standard error, %)","[1]; 1 mg/tube, 24 hr",100a %
same,"Mortality (Means ± standard error, %)","[1]; 1 mg/tube, 48 hr",100a %
same,"Mortality (Means ± standard error, %)","[2]; 0.125 mg/tube, 24 hr",0e %
same,"Mortality (Means ± standard error, %)","[2]; 0.125 mg/tube, 48 hr",0e %
same,"Mortality (Means ± standard error, %)","[2]; 0.2 mg/tube, 24 hr",6.0 ± 1.1d %
same,"Mortality (Means ± standard error, %)","[2]; 0.2 mg/tube, 48 hr",9.0 ± 1.0d %
same,"Mortality (Means ± standard error, %)","[2]; 0.25 mg/tube, 24 hr",7.0 ± 3.0d %
same,"Mortality (Means ± standard error, %)","[2]; 0.25 mg/tube, 48 hr",8.0 ± 2.8d %
same,"Mortality (Means ± standard error, %)","[2]; 0.3 mg/tube, 24 hr",22.0 ± 2.6c %
same,"Mortality (Means ± standard error, %)","[2]; 0.3 mg/tube, 48 hr",27.0 ± 2.5c %
same,"Mortality (Means ± standard error, %)","[2]; 0.4 mg/tube, 24 hr",44.0 ± 2.8b %
same,"Mortality (Means ± standard error, %)","[2]; 0.4 mg/tube, 48 hr",46.0 ± 2.6b %
same,"Mortality (Means ± standard error, %)","[2]; 0.5 mg/tube, 24 hr",89.0%
same,"Mortality (Means ± standard error, %)","[2]; 0.5 mg/tube, 48 hr",92.0 ± 1.6a %
same,"Mortality (Means ± standard error, %)","[2]; 1 mg/tube, 24 hr",100a %
same,"Mortality (Means ± standard error, %)","[2]; 1 mg/tube, 48 hr",100a %
same,"Mortality (Means ± standard error, %)",[3]; 0.3125 mg/paper,87% and 86.7 ± 3.3 b %
same,"Mortality (Means ± standard error, %)",[3]; 0.625 mg/paper,100%
same,"Mortality (Means ± standard error, %)",[3]; 1.25 mg/paper,100 a %
same,"Mortality (Means ± standard error, %)",[3]; 2.5 mg/paper,100 a %
same,"Mortality (Means ± standard error, %)",[3]; 5 mg/paper,100 a %
same,"Mortality (Means ± standard error, %)",[4]; 0.3125 mg/paper,7.0 ± 2.1 b %
same,"Mortality (Means ± standard error, %)",[4]; 0.625 mg/paper,97%
same,"Mortality (Means ± standard error, %)",[4]; 1.25 mg/paper,100 a %
same,"Mortality (Means ± standard error, %)",[4]; 2.5 mg/paper,100 a %
same,"Mortality (Means ± standard error, %)",[4]; 5 mg/paper,100 a %
same,"Mortality (Means ± standard error, %)",[5]; 0.15625 mg/paper,68.0 ± 3.9 b %
same,"Mortality (Means ± standard error, %)",[5]; 0.3125 mg/paper,97%
same,"Mortality (Means ± standard error, %)",[5]; 0.625 mg/paper,100%
same,"Mortality (Means ± standard error, %)",[5]; 1.25 mg/paper,100 a %
same,"Mortality (Means ± standard error, %)",[5]; 2.5 mg/paper,100 a %
same,"Mortality (Means ± standard error, %)",[5]; 5 mg/paper,100 a %
same,insecticidal activity against three species,[6],100%

# From patent US6855348B2, “Insecticidal composition derived from plants” (priority 2000, dated 2005)
